Results taken from ChEMBL document CHEMBL3808275, “Design, synthesis and SARs of novel salicylanilides as potent inhibitors of RANKL-induced osteoclastogenesis and bone resorption” (Eur J Med Chem, 2016).
Activity calls are given as the source filed them. The rule behind the calls is not given here.

Legend:
[1] = target: T1, Nuclear factor of activated T-cells, cytoplasmic 1 (Mus musculus) (UniProt O88942); assay: Inhibition of RANKL-induced NFATc1 translocation in mouse RAW264.7 cells at 2 uM incubated with compound in presence of RANKL for 24 hrs by propidium iodide staining based Leica fluorescent microscopic analysis; assay type: cell-based
T1 sequence (whole entry): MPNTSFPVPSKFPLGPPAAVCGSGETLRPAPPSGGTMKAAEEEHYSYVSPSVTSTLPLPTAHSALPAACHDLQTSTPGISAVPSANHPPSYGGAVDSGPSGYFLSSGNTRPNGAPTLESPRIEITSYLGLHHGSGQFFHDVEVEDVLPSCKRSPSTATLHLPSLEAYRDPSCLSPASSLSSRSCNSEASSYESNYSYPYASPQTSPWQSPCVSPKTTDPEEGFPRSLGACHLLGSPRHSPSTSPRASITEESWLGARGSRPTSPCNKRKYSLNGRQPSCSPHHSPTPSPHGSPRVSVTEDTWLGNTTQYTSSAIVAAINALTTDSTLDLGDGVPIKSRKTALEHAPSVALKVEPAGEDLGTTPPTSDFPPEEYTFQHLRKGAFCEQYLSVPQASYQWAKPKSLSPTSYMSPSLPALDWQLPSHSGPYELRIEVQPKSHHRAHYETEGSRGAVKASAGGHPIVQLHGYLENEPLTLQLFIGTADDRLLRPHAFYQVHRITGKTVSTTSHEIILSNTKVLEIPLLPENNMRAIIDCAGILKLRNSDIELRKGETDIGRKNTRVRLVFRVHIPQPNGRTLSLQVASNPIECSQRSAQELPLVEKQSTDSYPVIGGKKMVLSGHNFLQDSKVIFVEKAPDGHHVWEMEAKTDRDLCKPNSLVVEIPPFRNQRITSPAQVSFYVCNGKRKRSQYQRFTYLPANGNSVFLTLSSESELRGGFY

RAW264.7 [2] = assay: Cytotoxicity against mouse RAW264.7 cells assessed as reduction in cell viability at 5 uM after 24 hrs by MTT assay; assay type: cell-based; conditions: raw264.7, 24 h
RAW264.7 [3] = assay: Inhibition of RANKL-induced osteoclast differentiation in mouse RAW264.7 cells assessed as reduction in TRAP-positive multinucleated cells level incubated with compound in presence of RANKL for 4 days by TRAP staining based light microscopic analysis relative to RANKL alone; assay type: functional, cell-based; conditions: RAW264.7, 96 h
RAW264.7 [4] = assay: Inhibition of RANKL-induced NFATc1 protein expression in mouse RAW264.7 cells at 1.5 and 2 uM incubated with compound in presence of RANKL for 24 hrs by propidium iodide staining based Leica fluorescent microscopic analysis; assay type: functional, cell-based
RAW264.7 [5] = assay: Inhibition of RANKL-induced osteoclast differentiation in mouse RAW264.7 cells assessed as TRAP-positive multinucleated cells level at 2.5 uM incubated with compound in presence of RANKL for 4 days by TRAP staining based light microscopic analysis relative to RANKL alone; assay type: functional; parameters: scale not given: the % may be the effect or the level left
[6] = target: T1, Nuclear factor of activated T-cells, cytoplasmic 1 (Mus musculus); assay: Inhibition of RANKL-induced NFATc1 translocation in mouse RAW264.7 cells at 1.5 uM incubated with compound in presence of RANKL for 24 hrs by propidium iodide staining based Leica fluorescent microscopic analysis; assay type: cell-based
RAW264.7 [7] = assay: Inhibition of RANKL-induced osteoclastic bone resorption in mouse RAW264.7 cells assessed as bone resorption area at 2 uM incubated with compound in presence of RANKL for 4 days by pit formation assay; assay type: functional; parameters: scale not given: the % may be the effect or the level left
RAW264.7 [8] = assay: Inhibition of RANKL-induced osteoclastic bone resorption in mouse RAW264.7 cells assessed as bone resorption area at 1.5 uM incubated with compound in presence of RANKL for 4 days by pit formation assay; assay type: functional; parameters: scale not given: the % may be the effect or the level left
[9] = Cytotoxicity against mouse RAW264.7 cells assessed as survival rate at 2.5 uM after 24 hrs by MTT assay; assay type: cell-based; conditions: read-out: Survival
[10] = Cytotoxicity against mouse RAW264.7 cells assessed as reduction in cell viability after 24 hrs by MTT assay; assay type: cell-based
RAW264.7 [11] = assay: Inhibition of RANKL-induced osteoclastic bone resorption in mouse RAW264.7 cells assessed as bone resorption area at 1 uM incubated with compound in presence of RANKL for 4 days by pit formation assay; assay type: functional; parameters: scale not given: the % may be the effect or the level left

Compound	inhibition [1]	Activity (RAW264.7 [2])	IC50 (RAW264.7 [3]) [µM]	inhibition (RAW264.7 [4])	Activity (RAW264.7 [5]) [%]	inhibition [6]	Activity (RAW264.7 [7]) [%]	Activity (RAW264.7 [8]) [%]	viability at 24 h, 2.5 µM [9] [%]	CC50 at 24 h [10] [µM]	Activity (RAW264.7 [11]) [%]
O=C(Nc1ccc(I)cc1F)c1cc(F)ccc1O	Active	Toxic	1.57	Active	0.1	Active	23.22	63.98	100	7.4	–
O=c1oc2ccc(F)cc2c(=O)n1-c1ccc(I)cc1F	Active	Toxic	2.05	Active	13.9	Active	16.93	42.55	102	6	73.07
O=c1oc2ccc(Cl)cc2c(=O)n1-c1ccc(I)cc1F	–	Toxic	2.05	–	19.1	–	–	–	95.5	6.9	–
